Experiments:
Type in all cases: in vivo, C57BL/6J mice
lens [1] = assay: Pharmacological Test 6: lens elasticity, ursodeoxycholic acid methyl ester once-daily for 7 days; details: for Lens elasticity improvement: QD, 7-month-old mice, vs vehicle control
Description: A vehicle comprising 0.1% (w/v) of ethyl pyruvate, 0.269% (w/v) of sodium dihydrogenphosphate monohydrate […], 0.433% (w/v) of disodium hydrogenphosphate (Na2HPO4), 0.2% (w/v) of hydroxypropyl methylcellulose, 0.5% (w/v) of NaCl was prepared. Ursodeoxycholic acid methyl ester was sonicated with the addition of the vehicle to prepare a 0.3% (w/v) suspension, a 1.0% (w/v) suspension and a 3.0% (w/v) suspension. The total amount of each sample to be used in one day was prepared before use. 1) Each test sample (2.5 μL/eye) was instilled into both eyes of 7-month-old C57BL/6J mice with a Pipetman once per day (QD; around 13:30) for 7 days. 2) Twenty-four hours after the final instillation, the mice were euthanized by carbon dioxide inhalation, and then the eyeballs were extracted and rinsed with Hank's balanced salt solution (HBSS). 3) The sclera near the optic nerve was cut with a razor, the lens was removed through the incision, and the removed lens was immersed in HBSS. 4) The lens was placed on a glass slide, and an all-in-one fluorescence microscope BZ-9000 (Keyence) was used to capture an image of the lens (Image a). 5) Next, one cover glass (Corning^(registered trade mark) 22×22 mm Square) was placed on the lens, and an image in which the thickness of the lens changed due to the weight was similarly captured (Image b). 6) A change in the lens diameter was calculated from Equation 1 wherein the lens diameter of Image a is subtracted from the lens diameter of Image b, as described below. Then, the lens elasticity improvement of each sample group compared with the vehicle control group was calculated from Equation 2 described below. Each mean of the vehicle control group and each ursodeoxycholic acid methyl ester sample group was based on 9 or 10 eyes. Change in lens diameter=Lens diameter in Image b of each test sample−Lens diameter in Image a of each test sample (Equation 1) Lens elasticity improvement of each sample group=Mean change in lens diameter of each Test sample group−Mean change in lens diameter of Vehicle control group (Equation 2)

lens [2] = assay: Pharmacological Test 8: lens elasticity, glycoursodeoxycholic acid once-daily for 7 days
Description: (§1) A vehicle comprising 0.1% (w/v) of ethyl pyruvate, 0.269% (w/v) of sodium dihydrogenphosphate monohydrate (NaH2PO4H2O), 0.433% (w/v) of disodium hydrogenphosphate (Na2HPO4), 0.2% (w/v) of hydroxypropyl methylcellulose, 0.5% (w/v) of NaCl was prepared. Glycoursodeoxycholic acid was sonicated with the addition of the vehicle to prepare a 1.0% (w/v) suspension. The total amount of each sample to be used in one day was prepared before use. 1) Each test sample (2.5 μL/eye) was instilled into both eyes of 8-month-old C57BL/6J mice with a Pipetman once per day (QD; around 13:30) for 7 days. 2) Twenty-four hours after the final instillation, the mice were euthanized by carbon dioxide inhalation, and then the eyeballs were extracted and rinsed with Hank's balanced salt solution (HBSS). 3) The sclera near the optic nerve was cut with a razor, the lens was removed through the incision, and the removed lens was immersed in HBSS. 4) The lens was placed on a glass slide, and an all-in-one fluorescence microscope BZ-9000 (Keyence) was used to capture an image of the lens (image a). […] 6) A change in the lens diameter was calculated from Equation 1 wherein the lens diameter of Image a is subtracted from the lens diameter of Image b, as described below. Then, the lens elasticity improvement of each sample group compared with the vehicle control group was calculated from Equation 2 described below. […]

lens [3] = assay: Pharmacological Test 7: lens elasticity, tauroursodeoxycholic acid once-daily for 7 days
Description: as §1, with “Tauroursodeoxycholic” for “Glycoursodeoxycholic”, “dissolved” for “sonicated”, “solution.” for “suspension.”, “7-month-old” for “8-month-old”, “(Image” for “(image”

lens [4] = assay: Pharmacological Test 2: lens elasticity after instillation of sodium ursodeoxycholate; details: for Lens elasticity improvement: 2.5 μL/eye, 3 times per day, 12 to 15 days, vs vehicle control
Description: A vehicle comprising 0.1% (w/v) of ethyl pyruvate, 0.269% (w/v) of sodium dihydrogenphosphate monohydrate (NaH2PO4H2O), 0.433% (w/v) of disodium hydrogenphosphate (Na2HPO4), 0.2% (w/v) of hydroxypropyl methylcellulose, 0.5% (w/v) of NaCl was prepared. Sodium ursodeoxycholate was sonicated with the addition of the vehicle to prepare a 1.5% (w/v) suspension. The resulting 1.5% (w/v) suspension was diluted with the vehicle to prepare a 0.5% (w/v) suspension. Further, the resulting 0.5% (w/v) suspension was diluted with the vehicle to prepare a 0.15% (w/v) suspension. The total amount of each sample to be used in one day was prepared before use. EV06 was sonicated with the addition of the vehicle to prepare a 1.5% (w/v) solution. The total amount of the sample to be used in one day was prepared before use. 1) Each test sample (2.5 μL/eye) was instilled into the right eye of 8-month-old C57BL/6J mice with a Pipetman 3 times per day (around 9:00, 13:00 and 17:00) for 12 to 15 days. 2) After the final instillation, the mice were euthanized by carbon dioxide inhalation, and then the eyeballs were extracted and rinsed with Hank's balanced salt solution (HBSS)). 3) The sclera near the optic nerve was cut with a razor, the lens was removed through the incision, and the removed lens was immersed in HBSS. 4) The lens was placed on a glass slide, and an all-in-one fluorescence microscope BZ-9000 (Keyence) was used to capture an image of the lens (Image a). 5) Next, one cover glass (Corning^(registered trade mark) 22×22 mm Square) was placed on the lens, and an image in which the thickness of the lens changed due to the weight was similarly captured (Image b). 6) A change in the lens diameter was calculated from Equation 1 wherein the lens diameter of Image a is subtracted from the lens diameter of Image b, as described below. Then, the lens elasticity improvement of each sample group compared with the vehicle control group was calculated from Equation 2 described below. The mean of the vehicle control group was based on 5 eyes, the mean of each sodium ursodeoxycholate sample group was based on 10 eyes, and the mean of the EV06 sample group was based on 10 eyes. Change in lens diameter Lens diameter in image b of each test sample−Lens diameter in Image a of each test sample (Equation 1) Lens elasticity improvement of each sample group=Mean change in lens diameter of each Test sample group−Mean change in lens diameter of Vehicle control group (Equation 2)

lens [5] = assay: Pharmacological Test 3: lens elasticity after instillation of ursodeoxycholic acid (free form)
Description: A vehicle comprising 0.1% (w/v) of ethyl pyruvate, 0.269% (w/v) of sodium dihydrogenphosphate monohydrate (NaH2PO4H2O), 0.433% (w/v) of disodium hydrogenphosphate (Na2HPO4), 0.2% (w/v) of hydroxypropyl methylcellulose, and 0.5% (w/v) of NaCl was prepared. Ursodeoxycholic acid was sonicated with the addition of the vehicle to prepare a 1.5% (w/v) suspension. The resulting 1.5% (w/v) suspension was diluted with the vehicle to prepare a 0.5% (w/v) suspension. Further, the resulting 0.5% (w/v) suspension was diluted with the vehicle to prepare a 0.15% (w/v) suspension. The total amount of each sample to be used in one day was prepared before use. EV06 was sonicated with the addition of the vehicle to prepare a 1.5% (w/v) solution. The total amount of the sample to be used in one day was prepared before use. 1) Each test sample (2.5 μL/eye) was instilled into the right eye of 8-month-old C57BL/6J mice with a Pipetman 3 times per day (around 9:00, 13:00 and 17:00) for 12 to 15 days. 2) After the final instillation, the mice were euthanized by carbon dioxide inhalation, and then the eyeballs were extracted and rinsed with Hank's balanced salt solution (HBSS). 3) The sclera near the optic nerve was cut with a razor, the lens was removed through the incision, and the removed lens was immersed in HBSS. 4) The lens was placed on a glass slide, and an all-in-one fluorescence microscope BZ-9000 (Keyence) was used to capture an image of the lens (Image a). 5) Next, one cover glass (Corning^(registered trade mark) 22×22 mm Square) was placed on the lens, and an image in which the thickness of the lens changed due to the weight was similarly captured (image b). 6) A change in the lens diameter was calculated from Equation 1 wherein the lens diameter of Image a is subtracted from the lens diameter of Image b, as described below. Then, the lens elasticity improvement of each sample group compared with the vehicle control group was calculated from Equation 2 described below. The mean of the vehicle control group was based on 5 eyes, the mean of each ursodeoxycholic acid sample group was based on 10 eyes, and the mean of the EV06 sample group was based on 10 eyes. Change in lens diameter=Lens diameter in Image b of each test sample−Lens diameter in Image a of each test sample (Equation 1) Lens elasticity improvement of each sample group=Mean change in lens diameter of each Test sample group−Mean change in lens diameter of Vehicle control group (Equation 2)

[6] = 1.5% sample group vs EV06 at the same concentration

For `COC(=O)CC[C@@H](C)[C@H]1CC[C@H]2[C@@H]3[C@@H](O)C[C@@H]4C[C@H](O)CC[C@]4(C)[C@H]3CC[C@]12C` [ursodeoxycholic acid methyl ester], the Lens elasticity improvement (lens [1]; 0.3% (w/v) sample) was 13.2 μm, the Lens elasticity improvement (lens [1]; 1% (w/v) sample) was 33.0 μm and the “Lens elasticity improvement, in words” value (lens [1]; 1% and 3% samples instilled once-daily) was “potent lens elasticity improvement”. The Lens elasticity improvement (lens [1]; 3% (w/v) sample) was 46.5 μm.
`C[C@H](CCC(=O)NCC(=O)O)[C@H]1CC[C@H]2[C@@H]3[C@@H](O)C[C@@H]4C[C@H](O)CC[C@]4(C)[C@H]3CC[C@]12C` [glycoursodeoxycholic acid, N-(3α,7β-Dihydroxy-5β-cholan-24-oyl)glycine] was tested, and the Lens elasticity improvement (lens [2]; 1% (w/v) suspension, QD, 8-month-old mice, vs vehicle control) was 20.1 μm and the “Lens elasticity improvement, in words” value (lens [2]; 1% sample instilled once-daily) was “potent lens elasticity improvement”.
In the case of `C[C@H](CCC(=O)NCCS(=O)(=O)O)[C@H]1CC[C@H]2[C@@H]3[C@@H](O)C[C@@H]4C[C@H](O)CC[C@]4(C)[C@H]3CC[C@]12C` [tauroursodeoxycholic acid, 3α,7β-Dihydroxy-5β-cholan-24-oic Acid N-(2-Sulfoethyl)amide], the Lens elasticity improvement (lens [3]; 1% (w/v) solution, QD, 7-month-old mice, vs vehicle control) was 29.7 μm and the “Lens elasticity improvement, in words” value (lens [3]; 1% sample instilled once-daily) was “potent lens elasticity improvement”.
`C[C@H](CCC(=O)[O-])[C@H]1CC[C@H]2[C@@H]3[C@@H](O)C[C@@H]4C[C@H](O)CC[C@]4(C)[C@H]3CC[C@]12C.[Na+]` [sodium ursodeoxycholate] was tested, and the Lens elasticity improvement (lens [4]; 0.15% (w/v) sample) was 26.5 μm, the Lens elasticity improvement (lens [4]; 0.5% (w/v) sample) was 34.8 μm and the Lens elasticity improvement (lens [4]; 1.5% (w/v) sample) was 44.7 μm. For the same molecule, the “Lens elasticity improving effect compared with EV06, in words” value (lens [4]; [6]) was “stronger than that of EV06”, the “Lens elasticity improving effect, in words” value (lens [4]; all of the 0.15%, 0.5% and 1.5% sample groups) was “potent lens elasticity improving effect” and the “Lens elasticity improving effect compared with EV06, in words” value (lens [5]; [6]) was “stronger than that of EV06”. The “Lens elasticity improving effect, in words” value (lens [5]; all of the 0.15%, 0.5% and 1.5% sample groups (Table 3)) was “potent lens elasticity improving effect”.
